# Columns and labels:
# [1] = target: HiBiT tagged CK1α (Homo sapiens, UniProt P48729+Q96SW2); assay: CK1α degradation assay (HiBiT assay); type: cell-based; details: 20 hours; for Dmax: HT-1080, HT-1080 cells; for Dmax / HiBiT CK1α: Dmax: maximum CK1α degradation; for DC50 / HiBiT CK1α: Dmax: HT-1080 cells; for DC50: concentration at 50% CK1α degradation
# Method: (§1) CK1α and GSPT1 Degradation Assay (HiBiT Assay) The following is an example of an assay that can be used to determine the dose-dependent CK1α and GSPT1 degradation activities of test compounds in a human cell line such as HT-1080 ([…]). HT-1080 cells stably overexpressing wild-type CRBN, GSPT1A(1-138)/G575N mutant and HiBiT tagged CK1α or GSPT1 were seeded into 384-well plates (Cat #3764, Corning) pre-spotted with DMSO or test compounds. Increasing concentrations of test compounds (ranging from 3.162×10^-4 μM to 10 μM at a 3.16-fold increment) or DMSO were dispensed into an empty 384-well plate using an Echo Acoustic Liquid Handler (Beckman Coulter). About 10,000 cells in complete DMEM cell culture media were seeded per well. […] Luminescence was then measured with an EnVision plate reader (PerkinElmer) or a PHERAstar plate reader (BMG Labtech). All CK1α or GSPT1 degradation curves were processed using Collaborative Drug Discovery Vault softwares (Burlingame, CA., www.collaborativedrug.com). CK1α or GSPT1 levels in compound-treated wells were normalized to that of DMSO control and expressed as Percent of Control (PoC, y). […]
# [2] = target: HiBiT tagged GSPT1 (Homo sapiens, UniProt P15170+Q96SW2); assay: GSPT1 degradation assay (HiBiT assay); type: cell-based; details: 20 hours, maximum GSPT1 degradation; for Dmax: HT-1080, HT-1080 cells; for HiBiT GSPT1: Dmax: HT-1080 cells
# Method: as §1
# HiBiT tagged CK1α, sequence (P48729 whole entry): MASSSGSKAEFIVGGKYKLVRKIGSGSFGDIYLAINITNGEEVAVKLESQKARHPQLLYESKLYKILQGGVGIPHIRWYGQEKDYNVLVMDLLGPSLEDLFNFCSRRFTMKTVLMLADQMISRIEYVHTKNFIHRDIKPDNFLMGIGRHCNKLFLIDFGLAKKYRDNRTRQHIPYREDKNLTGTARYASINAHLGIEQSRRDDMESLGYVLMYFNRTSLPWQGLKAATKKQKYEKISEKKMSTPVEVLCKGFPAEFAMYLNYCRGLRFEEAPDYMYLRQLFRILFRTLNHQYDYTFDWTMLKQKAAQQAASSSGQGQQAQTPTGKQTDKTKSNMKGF
# HiBiT tagged CK1α, sequence (Q96SW2 whole entry): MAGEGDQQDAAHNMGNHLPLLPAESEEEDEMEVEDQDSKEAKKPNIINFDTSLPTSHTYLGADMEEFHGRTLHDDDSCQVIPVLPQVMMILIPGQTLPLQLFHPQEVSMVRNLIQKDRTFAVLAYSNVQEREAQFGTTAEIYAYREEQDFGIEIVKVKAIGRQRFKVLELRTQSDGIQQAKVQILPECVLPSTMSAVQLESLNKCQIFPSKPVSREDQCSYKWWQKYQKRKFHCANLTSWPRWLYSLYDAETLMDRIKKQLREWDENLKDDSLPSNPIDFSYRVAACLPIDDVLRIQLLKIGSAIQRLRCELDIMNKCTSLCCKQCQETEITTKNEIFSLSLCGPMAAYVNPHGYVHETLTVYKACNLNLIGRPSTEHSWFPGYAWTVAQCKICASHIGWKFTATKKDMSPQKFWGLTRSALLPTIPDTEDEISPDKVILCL
# HiBiT tagged CK1α, sequence (Q16531 whole entry partner): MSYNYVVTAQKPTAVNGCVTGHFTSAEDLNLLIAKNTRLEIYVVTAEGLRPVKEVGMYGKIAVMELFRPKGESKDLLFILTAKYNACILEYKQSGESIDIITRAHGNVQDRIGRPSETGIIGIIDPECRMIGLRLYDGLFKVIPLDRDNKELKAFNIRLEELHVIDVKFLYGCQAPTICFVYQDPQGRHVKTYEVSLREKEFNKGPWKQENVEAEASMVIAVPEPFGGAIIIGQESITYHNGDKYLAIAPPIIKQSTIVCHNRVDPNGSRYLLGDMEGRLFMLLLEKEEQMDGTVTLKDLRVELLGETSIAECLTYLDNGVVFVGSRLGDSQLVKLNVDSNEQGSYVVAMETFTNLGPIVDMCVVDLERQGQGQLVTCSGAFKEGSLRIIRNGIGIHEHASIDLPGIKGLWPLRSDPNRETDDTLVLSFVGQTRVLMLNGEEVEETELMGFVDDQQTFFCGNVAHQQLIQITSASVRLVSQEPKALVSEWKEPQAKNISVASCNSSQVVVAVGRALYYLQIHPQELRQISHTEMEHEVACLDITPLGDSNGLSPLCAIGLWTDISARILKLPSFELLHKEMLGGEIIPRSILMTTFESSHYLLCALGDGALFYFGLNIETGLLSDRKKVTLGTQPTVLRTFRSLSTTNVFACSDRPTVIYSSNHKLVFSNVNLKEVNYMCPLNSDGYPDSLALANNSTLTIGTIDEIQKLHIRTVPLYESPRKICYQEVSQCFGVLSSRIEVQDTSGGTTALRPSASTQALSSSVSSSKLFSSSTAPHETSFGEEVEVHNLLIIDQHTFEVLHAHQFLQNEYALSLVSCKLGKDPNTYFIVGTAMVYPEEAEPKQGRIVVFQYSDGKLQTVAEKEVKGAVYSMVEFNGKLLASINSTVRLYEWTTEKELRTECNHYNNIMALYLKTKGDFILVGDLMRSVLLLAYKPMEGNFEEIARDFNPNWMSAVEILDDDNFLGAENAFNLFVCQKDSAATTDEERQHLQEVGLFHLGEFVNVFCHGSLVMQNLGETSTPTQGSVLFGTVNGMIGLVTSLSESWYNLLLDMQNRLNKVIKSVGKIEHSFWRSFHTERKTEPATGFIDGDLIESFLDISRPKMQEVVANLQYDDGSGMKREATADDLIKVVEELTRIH
# HiBiT tagged GSPT1, sequence (P15170 whole entry): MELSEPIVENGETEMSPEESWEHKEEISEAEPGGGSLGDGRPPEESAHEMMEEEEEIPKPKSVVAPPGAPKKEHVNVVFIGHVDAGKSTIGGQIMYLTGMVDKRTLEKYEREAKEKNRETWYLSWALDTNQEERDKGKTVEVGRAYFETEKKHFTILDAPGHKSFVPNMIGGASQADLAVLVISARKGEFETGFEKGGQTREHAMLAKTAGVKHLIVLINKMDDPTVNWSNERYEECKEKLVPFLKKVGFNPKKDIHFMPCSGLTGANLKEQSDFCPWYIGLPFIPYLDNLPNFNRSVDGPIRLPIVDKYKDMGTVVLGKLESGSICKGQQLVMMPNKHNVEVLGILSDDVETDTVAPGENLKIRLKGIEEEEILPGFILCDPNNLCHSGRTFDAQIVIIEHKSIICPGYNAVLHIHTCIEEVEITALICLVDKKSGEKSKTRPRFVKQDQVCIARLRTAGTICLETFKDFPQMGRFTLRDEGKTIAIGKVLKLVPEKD
# HiBiT tagged GSPT1, sequence (Q96SW2 whole entry): as the sequence (Q96SW2 whole entry) above
# HiBiT tagged GSPT1, sequence (Q16531 whole entry partner): as the sequence (Q16531 whole entry partner) above
Structure (SMILES),Dmax [1],DC50 [1],Dmax [2],HiBiT CK1α: Dmax [1],HiBiT GSPT1: Dmax [2]
"O=C1CCC(N2Cc3cc(C(=O)NC(c4ccc(Cl)cc4F)C4CC4)ccc3C2=O)C(=O)N1 (centres unmarked) [Compound 14, N-((4-chloro-2-fluorophenyl)(cyclopropyl)methyl)-2-(2,6-dioxopiperidin-3-yl)-1-xoisoindoline-5-carboxamide]",67.1%,284 nM,45.5%,–,–
"O=C1CCC(N2Cc3cc(C(=O)N[C@@H](c4cccc(C(F)(F)F)c4)C4CC4)ccc3C2=O)C(=O)N1 (stereo in doubt) [Compound 33, N-((*R)-cyclopropyl(3-(trifluoromethyl)phenyl)methyl)-2-(2,6-dioxopiperidin-3-yl)-1-oxoisoindoline-5-carboxamide]",56.3%,1300 nM,66.3%,–,–
"O=C1CC[C@@H](N2Cc3cc(C(=O)NC(c4ccc(F)c(F)c4)C4CCC4)ccc3C2=O)C(=O)N1 (single isomer, unassigned) [Compound 49, N-((*S)-cyclobutyl(3,4-difluorophenyl)methyl)-2-((R)-2,6-dioxopiperidin-3-yl)-1-oxoisoindoline-5-carboxamide]",68.6%,112 nM,28.6%,–,–
"O=C1CCC(N2Cc3cc(C(=O)NC(c4ncccc4Cl)C4CC4)ccc3C2=O)C(=O)N1 (centres unmarked) [Compound 16, N-((3-chloropyridin-2-yl)(cyclopropyl)methyl)-2-(2,6-dioxopiperidin-3-yl)-1-oxoisoindoline-5-carboxamide]",62.2%,303 nM,44.9%,–,–
"O=C1CCC(N2Cc3cc(C(=O)N[C@H](c4c(F)cccc4F)C4CC4)ccc3C2=O)C(=O)N1 (stereo in doubt) [Compound 17, N-((*S)-cyclopropyl(2,6-difluorophenyl)methyl)-2-(2,6-dioxopiperidin-3-yl)-1-oxoisoindoline-5-carboxamide]",68.1%,123 nM,49.3%,–,–
"O=C1CCC(N2Cc3cc(C(=O)NC(c4ccc(F)cc4Cl)C4CCC4)ccc3C2=O)C(=O)N1 (centres unmarked) [Compound 19, N-((2-chloro-4-fluorophenyl)(cyclobutyl)methyl)-2-(2,6-dioxopiperidin-3-yl)-1-oxoisoindoline-5-carboxamide]",69.6%,65.9 nM,43%,–,–
"O=C1CCC(N2Cc3cc(C(=O)N[C@@H](c4cccc(Cl)c4)C4CC4)ccc3C2=O)C(=O)N1 (stereo in doubt) [Compound 27, N-((*R)-(3-chlorophenyl)(cyclopropyl)methyl)-2-(2,6-dioxopiperidin-3-yl)-1-oxoisoindoline-5-carboxamide]",59.3%,345 nM,40.3%,–,–
"O=C1CCC(N2Cc3cc(C(=O)NC(c4c(F)cccc4Cl)C4CC4)ccc3C2=O)C(=O)N1 (centres unmarked) [Compound 45, N-((2-chloro-6-fluorophenyl)(cyclopropyl)methyl)-2-(2,6-dioxopiperidin-3-yl)-1-oxoisoindoline-5-carboxamide]",73.8%,57.8 nM,42.4%,–,–
"O=C1CCC(N2Cc3cc(C(=O)N[C@H](c4ccc(F)cc4Cl)C4CC4)ccc3C2=O)C(=O)N1 (stereo in doubt) [Compound 13, N-((*S)-(2-chloro-4-fluorophenyl)(cyclopropyl)-yl)methyl)-2-(2,6-dioxopiperidin-3-yl)-1-oxoisoindoline-5-carboxamide]",65.9%,293 nM,37%,–,–
"O=C1CCC(N2Cc3cc(C(=O)N[C@H](c4cccc(F)c4)C4CC4)ccc3C2=O)C(=O)N1 (stereo in doubt) [Compound 26, N-((*S)-cyclopropyl(3-fluorophenyl)methyl)-2-(2,6-dioxopiperidin-3-yl)-1-oxoisoindoline-5-carboxamide]",58.4%,417 nM,30.7%,–,–
"O=C1CCC(N2Cc3cc(C(=O)N[C@H](c4ccc(F)cc4)C4CC4)ccc3C2=O)C(=O)N1 (stereo in doubt) [Compound 10, N-((*S)-cyclopropyl(4-fluorophenyl)methyl)-2-(2,6-dioxopiperidin-3-yl)-1-oxoisoindoline-5-carboxamide]",60.8%,706 nM,36%,–,–
"Cc1cccc([C@H](NC(=O)c2ccc3c(c2)CN(C2CCC(=O)NC2=O)C3=O)C2CC2)c1 (stereo in doubt) [Compound 29, N-((*R)-cyclopropyl(m-tolyl)methyl)-2-(2,6-dioxopiperidin-3-yl)-1-oxoisoindoline-5-carboxamide]",58.8%,553 nM,22%,–,–

# The remaining lines, values ahead:
Dmax [1],DC50 [1],Dmax [2],HiBiT CK1α: Dmax [1],HiBiT GSPT1: Dmax [2],Structure (SMILES)
59.6%,721 nM,23.1%,–,–,"O=C1CCC(N2Cc3cc(C(=O)N[C@H](c4ccc(F)cc4)C4(O)CC4)ccc3C2=O)C(=O)N1 (stereo partly drawn) [Compound 65, 2-(2,6-dioxopiperidin-3-yl)-N—((R)-(4-fluorophenyl)(1-hydroxycyclopropyl)methyl)-1-oxoisoindoline-5-carboxamide]"
49.7%,–,16.5%,–,–,"O=C1CCC(N2Cc3cc(C(=O)N[C@H](c4ccc(F)cc4)C4COC4)ccc3C2=O)C(=O)N1 (stereo in doubt) [Compound 58, 2-(2,6-dioxo-3-piperidyl)-N-[(*S)-(4-fluorophenyl)-(oxetan-3-yl)methyl]-1-oxo-isoindoline-5-carboxamide]"
–,95 nM,–,73.9%,28.5%,"O=C1CC[C@@H](N2Cc3cc(C(=O)N[C@H](c4ccc(F)cc4Cl)C4CCC4)ccc3C2=O)C(=O)N1 (racemic) [Compound 52, N-((*S)-(2-chloro-4-fluorophenyl)(cyclobutyl)methyl)-2-((*R)-2,6-dioxopiperidin-3-yl)-1-oxoisoindoline-5-carboxamide]"
65.5%,132 nM,45.2%,–,–,"O=C1CCC(N2Cc3cc(C(=O)N[C@@H](c4ccc(F)cc4Cl)C4CCC4)ccc3C2=O)C(=O)N1 (stereo in doubt) [Compound 72, N-((*R)-(2-chloro-4-fluorophenyl)(cyclobutyl)methyl)-2-(2,6-dioxopiperidin-3-yl)-1-oxoisoindoline-5-carboxamide]"
62.1%,153 nM,18.4%,–,–,"O=C1CCC(N2Cc3cc(C(=O)N[C@H](c4ncc(F)cc4Cl)C4CCC4)ccc3C2=O)C(=O)N1 (stereo in doubt) [Compound 81, N-((*S)-(3-chloro-5-fluoropyridin-2-yl)(cyclobutyl)methyl)-2-(2,6-dioxopiperidin-3-yl)-1-oxoisoindoline-5-carboxamide]"
–,128 nM,–,64.4%,19.1%,"O=C1CC[C@H](N2Cc3cc(C(=O)N[C@H](c4ccc(Cl)cc4F)C4CCC4)ccc3C2=O)C(=O)N1 (racemic) [Compound 57, N-((*S)-(4-chloro-2-fluorophenyl)(cyclobutyl)methyl)-2-((*S)-2,6-dioxopiperidin-3-yl)-1-oxoisoindoline-5-carboxamide]"
–,50.3 nM,–,73.9%,58%,"O=C1CCC(N2Cc3cc(C(=O)N[C@@H](c4c(F)cccc4Cl)C4CCC4)ccc3C2=O)C(=O)N1 (stereo in doubt) [Compound 70, N-((*R)-(2-chloro-6-fluorophenyl)(cyclobutyl)methyl)-2-(2,6-dioxopiperidin-3-yl)-1-oxoisoindoline-5-carboxamide]"
56.5%,1110 nM,–,–,47.9%,"O=C1CC[C@@H](N2Cc3cc(C(=O)N[C@H](c4ccc(Cl)cc4F)C4CCC4)ccc3C2=O)C(=O)N1 (racemic) [Compound 54, N-((*S)-(4-chloro-2-fluorophenyl)(cyclobutyl)methyl)-2-((*R)-2,6-dioxopiperidin-3-yl)-1-oxoisoindoline-5-carboxamide]"
66.7%,162 nM,27.9%,–,–,"N#Cc1ccccc1[C@@H](NC(=O)c1ccc2c(c1)CN(C1CCC(=O)NC1=O)C2=O)C1CC1 (stereo in doubt) [Compound 64, N-((*S)-(2-cyanophenyl)(cyclopropyl)methyl)-2-(2,6-dioxopiperidin-3-yl)-1-oxoisoindoline-5-carboxamide]"
55.4%,394 nM,14.9%,–,–,"O=C1CCC(N2Cc3cc(C(=O)N[C@H](c4ncccc4F)C4(F)CCC4)ccc3C2=O)C(=O)N1 (stereo in doubt) [Compound 88, 2-(2,6-dioxopiperidin-3-yl)-N-((*R)-(1-fluorocyclobutyl)(3-fluoropyridin-2-yl)methyl)-1-oxoisoindoline-5-carboxamide]"
61.1%,652 nM,14.2%,–,–,"O=C1CCC(N2Cc3cc(C(=O)N[C@H](c4ncc(Cl)cc4F)C4CCC4)ccc3C2=O)C(=O)N1 (stereo in doubt) [Compound 80, N-((*S)-(5-chloro-3-fluoropyridin-2-yl)(cyclobutyl)methyl)-2-(2,6-dioxopiperidin-3-yl)-1-oxoisoindoline-5-carboxamide]"
